Data reported in PubChem BioAssay AID2060361 (Molecular Pharmacology Branch, DTP, NCI, 2025).
Where “and” joins values, the source holds several entries; their conditions need not be identical. Identical values can stand only once.

Test system: 463943-066-T-J2-PDC tumor spheroids with HUVEC/MSC, viability
Assay: Anticancer human tumor 463943-066-T-J2-PDC patient-derived colon adenocarcinoma cell line growth inhibition [TAK]
Conditions: for viability, T/C: stronger effect = lower value
Excerpt: Combinatorial screen of targeted agents with TAK-243 and ipatasertib in multi-cell type tumor spheroids
A high-throughput screen of multi-cell type tumor spheroids was designed to identify active combinations of targeted small molecules and TAK-243 or ipatasertib. Complex spheroids include a stromal component modeled by human endothelial cells (HUVEC) and fibroblasts modeled by human mesenchymal stem cells (MSCs). The concentration ranges selected for each drug and investigational agent were based upon clinically achievable concentrations if the clinical Cmax of the agent was known.
Compounds. The drugs and investigational agents: TAK-243 (785004), ipatasertib (767898), everolimus (733504), selumetinib (741078), bortezomib (756655), trametinib (758246), ixazomib (758254), vemurafenib (761431), dabrafenib (764134), sapanisertib (764658), alpelisib (765974), and copanlisib (816437), were obtained from the National Cancer Institute (NCI) Developmental Therapeutics Program Chemical Repository. The FDA-approved anticancer drug set is available from the NCI Developmental Therapeutics Program. […] The stock solutions were prepared in dimethyl sulfoxide (DMSO, Sigma-Aldrich, St. Louis, MO, cat. D2650) at 800-fold the tested concentration and stored at -70 degrees C prior to their use. All drugs and investigational agents were tested over a range starting from a high concentration at or near the clinical Cmax and decreasing in half-log increments. If the clinical Cmax for an agent had not been determined, the highest concentration tested was 10 microM.
NCI60 Cell Culture. NCI60 cell lines were obtained from the NCI Developmental Therapeutics Program Tumor Repository. For each lot of cells, the Repository performed Applied Biosystems AmpFLSTR Identifiler testing with PCR amplification to confirm consistency with the published Identifier STR profile for each cell line. Cells were kept in continuous culture for no more than 20 passages. The optimal seeding densities for each of the cell lines at each time point assessed were determined prior to performing the concentration response studies. Briefly, the NCI60 human tumor lines were grown as monolayers in RPMI 1640 medium supplemented with 10% FBS and 2 mmol/L L-glutamine.
An additional 2 lines were from the NCI60 cell line panel including melanomas, MALME-3M and SK-MEL-2. Pooled donor human umbilical vein endothelial cells (HUVEC, Lonza, cat. CC-2519) and human mesenchymal stem cells (hMSC, Lonza, cat. PT-2501) were purchased from Lonza (Walkersville, MD).
PDMR cell lines were grown in complete medium (DC medium): Dulbecco's modified Eagle's medium (DMEM)/F12 supplemented with 5% fetal bovine serum (FBS), 2 mM L-glutamine, 100 U/mL penicillin and 100 µg/ml streptomycin, 0.4 µg/ml hydrocortisone, 10 ng/ml epidermal growth factor (EGF) recombinant human protein, 24 µg/mL adenine, and 0.1 mg/mL primocin. During culture from frozen stock vials, PDMR cells were cultured in the same medium containing 10 µM Y-27632 (see Table 3). The PDCs were cultured in complete DMEM/F12 media without 10 microM Y-27632 dihydrochloride for at least two passages prior to the screen. The pooled donor HUVEC and hMSC were cultured in endothelial cell growth medium 2 (PromoCell, Heidelberg, Germany, cat. C-22011) and mesenchymal stem cell growth medium 2 (PromoCell, cat. C-28009), respectively. For all experiments, HUVEC and hMSC were used at passages </=5.
For the pre-screen, cell seeding densities were determined from a titration spanning the range from 5,000 to 313 cells per well. The mct-spheroids including 60% malignant cells, 25% HUVEC and 15% MSC dispensed as a mixture into U-bottom Ultra-Low Attachment 384-well plates (Corning, NY)
High-throughput Drug Combination Screening.
Prior to their inoculation into 384-well plates, malignant cells, HUVEC, and hMSC were removed from T flasks using TrypLE express (Thermo Fisher Scientific, cat. 12605036) and harvested by centrifugation for 5 min at 233 x g. […]
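Further: spheroids exposed to drugs for seven days.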
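Wherever viability, T/C is given: 100% = DMSO vehicle control wells.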

CC(=O)Nc1cccc(-n2c(=O)n(C3CC3)c(=O)c3c(Nc4ccc(I)cc4F)n(C)c(=O)c(C)c32)c1
viability, T/C (compound 94.9 pM): 104% and 102% | viability, T/C (compound 0.0003 µM): 93.3% and 98.1% | viability, T/C (compound 0.000949 µM): 89.2% and 86.9% | viability, T/C (compound 0.003 µM): 86.5% and 68.9% | viability, T/C (compound 0.00949 µM): 81.9% and 67.4% | viability, T/C (compound 0.03 µM): 67.2% and 59.4% | IC50 (curve of compound): > 30 nM

CC(C)(C)c1nc(-c2cccc(NS(=O)(=O)c3c(F)cccc3F)c2F)c(-c2ccnc(N)n2)s1
viability, T/C (compound 0.0316 µM): 116% and 108% | viability, T/C (compound 0.1 µM): 110% and 108% | viability, T/C (compound 0.316 µM): 113% and 103% | viability, T/C (compound 1 µM): 112% and 109% | viability, T/C (compound 3.16 µM): 109% and 116% | viability, T/C (compound 10 µM): 104% and 107% | IC50 (curve of compound): > 10000 nM

CC(C)CC(NC(=O)C(Cc1ccccc1)NC(=O)c1cnccn1)B(O)O (stereo not drawn)
viability, T/C (compound 31.6 pM): 106% and 127% | viability, T/C (compound 0.0001 µM): 109% and 112% | viability, T/C (compound 0.000316 µM): 97.4% and 97.8% | viability, T/C (compound 0.001 µM): 87.7% and 98.7% | viability, T/C (compound 0.00316 µM): 90.2% and 85.5% | viability, T/C (compound 0.01 µM): 70.7% and 80.7% | IC50 (curve of compound): > 10 nM

CC(C)CC(NC(=O)CNC(=O)c1cc(Cl)ccc1Cl)B1OC(=O)CC(CC(=O)O)(C(=O)O)O1 (stereo not drawn)
viability, T/C (compound 0.000316 µM): 109% and 95.1% | viability, T/C (compound 0.001 µM): 108% and 96.2% | viability, T/C (compound 0.00316 µM): 122% and 97.5% | viability, T/C (compound 0.01 µM): 100% and 95.3% | viability, T/C (compound 0.0316 µM): 82.2% and 73.6% | viability, T/C (compound 0.1 µM): 81.4% and 74.8% | IC50 (curve of compound): > 100 nM

CC(C)NCC(C(=O)N1CCN(c2ncnc3c2C(C)CC3O)CC1)c1ccc(Cl)cc1 (stereo not drawn)
viability, T/C (compound 0.3 µM): 94.2% [middle of 10 runs] | viability, T/C (compound 3 µM): 86.9% [middle of 10 runs] | IC50 (compound alone, run of 02/28/2020): > 30000 nM

CC(C)n1nc(-c2ccc3oc(N)nc3c2)c2c(N)ncnc21
viability, T/C (compound 0.000316 µM): 115% and 102% | viability, T/C (compound 0.001 µM): 103% | viability, T/C (compound 0.00316 µM): 93.7% and 84.9% | viability, T/C (compound 0.01 µM): 75.8% and 92.2% | viability, T/C (compound 0.0316 µM): 83.8% and 77.3% | viability, T/C (compound 0.1 µM): 82.8% and 76.9% | IC50 (curve of compound): > 100 nM

CCCS(=O)(=O)Nc1ccc(F)c(C(=O)c2c[nH]c3ncc(-c4ccc(Cl)cc4)cc23)c1F
viability, T/C (compound 0.316 µM): 108% and 97.6% | viability, T/C (compound 1 µM): 107% and 112% | viability, T/C (compound 3.16 µM): 109% and 126% | viability, T/C (compound 10 µM): 95.6% and 103% | viability, T/C (compound 31.6 µM): 122% and 118% | viability, T/C (compound 100 µM): 122% and 124% | IC50 (curve of compound): > 100000 nM

COC1CC2CCC(C)C(O)(O2)C(=O)C(=O)N2CCCCC2C(=O)OC(C(C)CC2CCC(OCCO)C(OC)C2)CC(=O)C(C)C=C(C)C(O)C(OC)C(=O)C(C)CC(C)C=CC=CC=C1C (stereo not drawn)
viability, T/C (compound 0.000316 µM): 101% and 107% | viability, T/C (compound 0.001 µM): 91% and 91.9% | viability, T/C (compound 0.00316 µM): 87.1% and 85.7% | viability, T/C (compound 0.01 µM): 83.7% and 89.1% | viability, T/C (compound 0.0316 µM): 85.6% and 91.5% | viability, T/C (compound 0.1 µM): 76.8% and 86% | IC50 (curve of compound): > 100 nM

COc1c(OCCCN2CCOCC2)ccc2c3n(c(=NC(=O)c4cnc(N)nc4)nc12)CCN3
viability, T/C (compound 0.00316 µM): 93.7% and 101% | viability, T/C (compound 0.01 µM): 88.3% and 90.3% | viability, T/C (compound 0.0316 µM): 84.4% and 86.9% | viability, T/C (compound 0.1 µM): 80.3% and 85% | viability, T/C (compound 0.316 µM): 77.4% and 77.2% | viability, T/C (compound 1 µM): 68.1% and 72.1% | IC50 (curve of compound): > 1000 nM

Cc1nc(NC(=O)N2CCCC2C(N)=O)sc1-c1ccnc(C(C)(C)C(F)(F)F)c1 (stereo not drawn)
viability, T/C (compound 0.0316 µM): 96.2% and 102% | viability, T/C (compound 0.1 µM): 103% and 91.1% | viability, T/C (compound 0.316 µM): 87.7% and 90.1% | viability, T/C (compound 1 µM): 78.6% and 84.6% | viability, T/C (compound 3.16 µM): 81.1% and 78.6% | viability, T/C (compound 10 µM): 78.6% and 73.7% | IC50 (curve of compound): > 10000 nM

Cn1cnc2c(F)c(Nc3ccc(Br)cc3Cl)c(C(=O)NOCCO)cc21
viability, T/C (compound 0.00949 µM): 101% and 106% | viability, T/C (compound 0.03 µM): 99.1% and 108% | viability, T/C (compound 0.0949 µM): 77.1% and 84% | viability, T/C (compound 0.3 µM): 85.9% and 76% | viability, T/C (compound 0.949 µM): 64.1% and 78.2% | viability, T/C (compound 3 µM): 62.4% and 57.4% | IC50 (curve of compound): > 3000 nM

COC1CC2CCC(C)C(O)(O2)C(=O)C(=O)N2CCCCC2C(=O)OC(C(C)CC2CCC(OCCO)C(OC)C2)CC(=O)C(C)C=C(C)C(O)C(OC)C(=O)C(C)CC(C)C=CC=CC=C1C (stereo not drawn) + CC(C)NCC(C(=O)N1CCN(c2ncnc3c2C(C)CC3O)CC1)c1ccc(Cl)cc1
IC50 (curve of first compound, second compound 0.3 µM): > 100 nM | IC50 (curve of first compound, second compound 0.949 µM): > 100 nM | IC50 (curve of first compound, second compound 3 µM): > 100 nM | IC50 (curve of first compound, second compound 9.49 µM): > 100 nM | IC50 (curve of first compound, second compound 30 µM): > 100 nM | viability, T/C (second compound 0.3 µM, first compound 0.000316 µM): 91.7% | viability, T/C (second compound 0.3 µM, first compound 0.001 µM): 86.2% | viability, T/C (second compound 0.3 µM, first compound 0.00316 µM): 90.4% | viability, T/C (second compound 0.3 µM, first compound 0.01 µM): 74.8% | viability, T/C (second compound 0.3 µM, first compound 0.0316 µM): 86.5% | viability, T/C (second compound 0.3 µM, first compound 0.1 µM): 77.3% | viability, T/C (second compound 0.949 µM, first compound 0.000316 µM): 85.5% | viability, T/C (second compound 0.949 µM, first compound 0.001 µM): 90.9% | viability, T/C (second compound 0.949 µM, first compound 0.00316 µM): 83.2% | viability, T/C (second compound 0.949 µM, first compound 0.01 µM): 76.4% | viability, T/C (second compound 0.949 µM, first compound 0.0316 µM): 78.8% | viability, T/C (second compound 0.949 µM, first compound 0.1 µM): 80.7% | viability, T/C (second compound 3 µM, first compound 0.000316 µM): 86% | viability, T/C (second compound 3 µM, first compound 0.001 µM): 91.3% | viability, T/C (second compound 3 µM, first compound 0.00316 µM): 81.4% | viability, T/C (second compound 3 µM, first compound 0.01 µM): 80.3% | viability, T/C (second compound 3 µM, first compound 0.0316 µM): 78.2% | viability, T/C (second compound 3 µM, first compound 0.1 µM): 78.3% | viability, T/C (second compound 9.49 µM, first compound 0.000316 µM): 84.8% | viability, T/C (second compound 9.49 µM, first compound 0.001 µM): 76.7% | viability, T/C (second compound 9.49 µM, first compound 0.00316 µM): 81.5% | viability, T/C (second compound 9.49 µM, first compound 0.01 µM): 76.6% | viability, T/C (second compound 9.49 µM, first compound 0.0316 µM): 80% | viability, T/C (second compound 9.49 µM, first compound 0.1 µM): 78.6% | viability, T/C (second compound 30 µM, first compound 0.000316 µM): 85.8% | viability, T/C (second compound 30 µM, first compound 0.001 µM): 79.9% | viability, T/C (second compound 30 µM, first compound 0.00316 µM): 82.8% | viability, T/C (second compound 30 µM, first compound 0.01 µM): 78.8% | viability, T/C (second compound 30 µM, first compound 0.0316 µM): 73.1% | viability, T/C (second compound 30 µM, first compound 0.1 µM): 80.8%
